Legend:
[1] = tested on: osteoclast; assay: Uptake by osteoclast (cellular uptake experiment); type: cell-based, mouse
Description: (§1) Osteoblast was isolated from the parietal bone of a newborn mouse by means of stepwise enzyme digestion according to a method described by Takahashi et al. (Takahashi et al., Endocrinology, 123: 2600-2602 (1988)), and cultured using α-MEM (10% fetal calf serum) for 6 to 8 days for use in the following experiments. Furthermore, osteoclast was obtained by co-culturing osteoblastic cells and bone marrow cells for 6 to 8 days using α-MEM (10% fetal calf serum, 10^−8 M vitamin D3, pH 6.2) on a collagen-coated dish according to a method described by Takahashi et al. (Takahashi et al., Endocrinology, 122: 1373-1382 (1988)). The osteoclast was identified by means of tartaric acid-resistant acidic phosphatase dyeing.
Experiment of uptake by cells: The osteoblast or the co-cultured osteoclast was isolated using 35% Percoll and incubated using α-MEM (10% fetal calf serum) at 37° C. in an atmosphere of 5% CO2 and 95% air for 3 hours. The incubated cells were washed with an incubation buffer of pH 7.4 (10 mM HEPES, 5 mM glucose, 150 mM NaCl, 5 mM KCl, 1.8 mM MgSO4, 1 mM CaCl2) three times, and pre-incubated using the same buffer at 37° C. for 30 minutes. Then, the cells in incubation buffer containing ^99mTc(V)-DMS at a concentration of 129.5 kBq/mL were allowed to infiltrate, and washed with the ice-cooled incubation buffer three times, 5, 10, 30 and 60 minutes later. Then, the cells were lysed with 0.2N NaOH, and radioactivity taken up by the cells was measured using a gamma counter. After completion of the radioactivity measurement, the amount of proteins contained in the cell lysate was measured using BCA Protein Assay Kit (produced by Pierce), and the ^99mTc-DMS uptake per unit protein mass (% dose/mg protein) was obtained. As to ^99mTc-HMDP, a similar experiment was carried out for comparison.
In the method described in Example 2, the pH of the incubation buffer was set at 6.2, 6.6, 7.0, 7.4, 7.8 or 8.2, and the incubation time for ^99mTc(V)-DMS uptake was set at 10 minutes, to examine the effect of pH on the uptake of ^99mTc(V)-DMS by osteoclast and osteoblast. […]

[2] = tested on: osteoblast; assay: Uptake by osteoblast (cellular uptake experiment); type: cell-based, mouse
Description: as §1
Experiment of uptake by cells: The osteoblast or the co-cultured osteoclast was isolated using 35% Percoll and incubated using α-MEM (10% fetal calf serum) at 37° C. in an atmosphere of 5% CO2 and 95% air for 3 hours. […] Then, the cells were lysed with 0.2N NaOH, and radioactivity taken up by the cells was measured using a gamma counter. After completion of the radioactivity measurement, the amount of proteins contained in the cell lysate was measured using BCA Protein Assay Kit (produced by Pierce), and the ^99mTc-DMS uptake per unit protein mass (% dose/mg protein) was obtained. […]

[3] = tested on: Na^+-dependent phosphate transporter; assay: Participation of sodium ion-dependent phosphate transporter in uptake by osteoclast (phosphate anion, PFA, Na+, pH and cation effects); type: cell-based, mouse; details: varied [Pi], PFA 1 or 5 mM, cations, compared with K2H^32PO4, FIGS. 6 through 10
Procedure: In the method described in Example 2, an incubation buffer of pH 7.4 was used for pre-incubation, and the buffer containing ^99mTc(V)-DMS was an incubation buffer of pH 7.4 with the phosphate anion concentration ([Pi]) adjusted to 0 mM, 0.05 mM, 0.1 mM, 0.5 mM, 1.0 mM or 5.0 mM, while the incubation time was set at 5 minutes, to measure the uptake of ^99mTc(V)-DMS by osteoclast.
Furthermore, a similar experiment was carried out except that the buffer containing ^99mTc(V)-DMS was an incubation buffer of pH 7.4 containing 1 mM or 5 mM of phosphonoformic acid (PFA) which was a sodium ion-dependent phosphate transporter inhibitor.
Moreover, a similar experiment was carried out except that the buffer containing ^99mTc(V)-DMS was an incubation buffer of pH 7.4 with the sodium ion concentration ([Na^+]) adjusted in a range from 0.1 mM to 150 mM, and the incubation time for ^99mTc(V)-DMS uptake was set at 30 seconds, to measure the uptake of ^99mTc(V)-DMS into osteoclast.
In the method described in Example 2, the pH of the incubation buffer was set at 6.2, 6.6, 7.0, 7.4, 7.8 or 8.2, and the incubation time for ^99mTc(V)-DMS uptake was set at 30 seconds, to examine effct of pH on the uptake of ^99mTc(V)-DMS into osteoclast. A similar experiment was carried out for K2H^32PO4, to compare the behaviors of ^99mTc(V)-DMS and K2H^32PO4. […]

[4] = tested on: osteoclast; assay: Autoradiography of rat knee joint compared with osteoclast/osteoblast marker staining; type: in vivo, Wistar male rat; details: inferred from ^186Re(V)-DMS autoradiography in rat knee joint
Procedure: ^99mTc is unsuitable for autoradiography since it has a half life of 6 hours and is a gamma ray-emitting nuclide. Considering this, a radioisotope of Re that is a homologous element of Tc was used to evaluate the in vivo accumulation of ^99mTc(V)-DMS in osteoclast.
^186Re(V)-DMS prepared according to a method described by Horiuchi et al. (Nucl. Med. Biol. 26: 771-779 (1999)) was administered in an amount of 370 kBq to a Wistar male rat, and the rat was sacrificed 3 hours later. Knee joints were extracted, and 30 μm thick specimens were prepared and autoradiographed. Furthermore, from the same regions, 20 μm thick specimens were prepared and the tartaric acid-resistant acidic phosphatase as an osteoclast marker or the alkaline phosphatase as an osteoblast marker was detected by means of staining. The results of the autoradiography and staining were compared to evaluate the accumulation of ^99mTc(V)-DMS in osteoclast.

^99mTc(V)-dimercaptosuccinic acid [^99mTc(V)-DMS]
effect of pH on the cellular uptake by osteoclast ([1]; pH 6.2 to 8.2, incubation time 10 minutes, FIG. 4): remarkably increases as the pH value decreases
effect of incubation modality (extracellular pH) on the cellular uptake by osteoclast ([1]; pH of buffers for both pre-incubation and uptake 6.2, versus 7.4/6.2 and 7.4/7.4, 10 minutes, FIG. 5): the uptake of ^99mTc(V)-DMS rises
cellular uptake by osteoclast (uptake per unit protein mass) ([1]; time course 5, 10, 30 and 60 minutes, incubation buffer pH 7.4, 37° C., FIG. 2): taken up by osteoclastic cells in an especially large amount
effect of pH on the cellular uptake by osteoblast ([2]; pH 6.2 to 8.2, incubation time 10 minutes, FIG. 3): does not show any significant difference
cellular uptake by osteoblast (uptake per unit protein mass) ([2]; time course 5, 10, 30 and 60 minutes, incubation buffer pH 7.4, 37° C., FIG. 1): taken up by osteoblastic cells in an amount smaller than ^99mTc-HMDP
route of uptake by osteoclast [3]: taken up by osteoclast through the Na^+-dependent phosphate transporter
accumulation in osteoclast in vivo, inferred from ^186Re(V)-DMS surrogate [4]: accumulation of ^99mTc(V)-DMS in osteoclast is specific

Source: US6814952B2, “Diagnostic imaging agent useful for selecting a therapy for cancerous bone metastasis” (Nihon Medi-Physics Co., Ltd., priority 2001, dated 2004)
